{"source": "patent US20040034001A1", "about": "“Treatment of hypertension in women receiving hormone replacement therapy” (Schering AG, priority 2002, published 2004)", "tested_on": "hypertensive postmenopausal women", "experiment": "Post hoc analysis of blood pressure in women with elevated BP at baseline, multicenter 1-year endometrium study, no ACE inhibitor", "assay_type": "in vivo, human", "settings": "after 11 weeks; subset with baseline systolic BP>=140 mm Hg and or diastolic BP>=90 mm Hg", "protocol": "Administration of DRSP/E2 to Hypertensive Postmenopausal Women not being Treated with an ACE Inhibitor.\nIn a multicenter, double-blind randomized study examining the effect on the endometrium of 1142 postmenopausal women treated for 1 year with 1 of 4 doses of DRSP (0.5,1,2, and 3 mg) compared with E2 alone, mean systolic and diastolic blood pressure decreased from baseline for all treatment groups.", "data": [{"smiles": "C[C@]12CC[C@@H]3c4ccc(O)cc4CC[C@H]3[C@@H]1CC[C@@H]2O", "note": "[E2, 17-β-estradiol]", "values": [{"measurement": "mean decrease in systolic blood pressure", "result": "−3.7", "unit": "mm Hg"}]}]}
